Data from patent publication US20090209525A1, “ENABLING METHODS TO IDENTIFY ALLOSTERIC MODULATORS OF RECEPTOR ACTIVITY” (priority 2006, published 2009).
Numbering of substitutions follows the chain as printed.

Assays:
rat M1 L102A receptor = target: T1, rat M1 L102A receptor (Rattus norvegicus, UniProt P08482, L102A); assay: R-SAT functional assay, L102A mutant; assay type: cell-based; details: for Shift / EC50 / Eff (%): Table 3; for Shift: EC50 L102A divided by EC50 wild-type; for Eff (%): maximum response, normalized
T1 construct: expressed in transfected cells; host or cells: NIH-3T3
T1 sequence (P08482 1-460 L102A): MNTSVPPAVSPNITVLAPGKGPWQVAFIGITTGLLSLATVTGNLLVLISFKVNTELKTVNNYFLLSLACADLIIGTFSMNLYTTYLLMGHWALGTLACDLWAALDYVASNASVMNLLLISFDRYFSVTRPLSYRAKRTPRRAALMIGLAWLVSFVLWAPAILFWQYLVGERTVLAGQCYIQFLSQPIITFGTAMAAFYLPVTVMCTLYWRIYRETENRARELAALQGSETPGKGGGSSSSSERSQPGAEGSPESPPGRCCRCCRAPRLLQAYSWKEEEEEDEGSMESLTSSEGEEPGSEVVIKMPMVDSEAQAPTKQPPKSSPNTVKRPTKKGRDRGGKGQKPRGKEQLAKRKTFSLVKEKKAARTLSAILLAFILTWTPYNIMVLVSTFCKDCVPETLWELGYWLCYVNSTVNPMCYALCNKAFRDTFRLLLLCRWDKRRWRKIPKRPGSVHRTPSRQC
Experimental: (§1) Cells are co-transfected for 18 h with DMEM containing 0.08 micrograms/ml of an expression vector for the expression of the mutant receptor and 0.3 micrograms/ml pSI-Bgal (Promega, Madison Wis.), and 0.5% v/v Polyfect (Qiagen, Valencia Calif.), as recommended by the manufacturer. On day three, the medium is replaced with DMEM containing 1% PSG, 0.5% calf serum, 2% cyto-sf3 (Kemp Biotechnologies, Frederick, Md.), and varying concentrations of the compounds to be tested. Cells are grown in a humidified atmosphere with 5% ambient CO2 for 5 days. The media is removed from the plates, and beta-galactosidase activity is measured by the addition of o-nitrophenyl -d-galactopyranoside in phosphate-buffered saline with 5% Nonidet P-40. […] The following equation is fitted to the data using GraphPad Prism software (San Diego, Calif.):
(§2) NIH-3T3 cells were grown in 96-well tissue culture plates to 70 to 80% confluence in Dulbecco's modified essential media (DMEM) supplemented with 100 units/ml penicillin, 100 micrograms/ml streptomycin, 0.3 mg/ml L-glutamine (1% PSG, GIBCO) and 10% calf serum (Sigma-Aldrich). Cells were transfected for 18 h with DMEM containing 0.08 micrograms/ml receptor DNA and 0.3 micrograms/ml pSI-Bgal (Promega, Madison Wis.), 0.5% v/v Polyfect (Qiagen, Valencia Calif.). Medium was replaced with DMEM containing 1% PSG, 0.5% calf serum, 2% cyto-sf3 (Kemp Biotechnologies, Frederick, Md.), and varying concentrations of ligand. […] Cells were grown in a humidified atmosphere with 5% ambient CO2 for 5 days. Medium was removed from the plates, and beta-galactosidase activity was measured by the addition of o-nitrophenyl -d-galactopyranoside in phosphate-buffered saline with 5% Nonidet P-40.

rat M1 Y106A receptor = target: T2, rat M1 Y106A receptor (Rattus norvegicus, UniProt P08482, Y106A); assay: ^3H-NMS radioligand binding, Y106A; details: for Shift: Ki Y106A divided by Ki wild-type
T2 construct: expressed in transfected cells
T2 sequence (P08482 1-460 Y106A): T1 sequence (P08482 1-460 L102A) with A102L, Y106A
Experimental: Briefly, cell homogenates are prepared from cells transiently or stably expressing wild type or mutant receptors. For transiently transfected cells, HEK cells are transfected with receptor of interest and cells harvested 48 hours post transfection. Cells expressing the receptor, stably or transiently, are harvested using phosphate buffered saline containing 5 mM EDTA, cells centrifuged at low speed and pellet re-suspended in binding buffer. Cell suspension is polytroned and centrifuged at 15,000×g. The pellet is resuspended in binding buffer and centrifugation repeated two more times. The washed cell homogenates are used for the competition binding assays. Competition binding assays are carried out in the presence of fixed amount of cell homogenate, fixed concentration of radioactively labeled orthosteric or allosteric ligand and varying concentrations of the cal under study using appropriate buffer. Incubations are carried out at room temperature for 2 hours. Incubations are terminated by filtration onto GF/B filters using Packard cell harvester followed by 3 washes with ice-cold buffer. Radioactivity retained on the filters is quantitated using Packard Top Count using Microscint 20 scintillation fluid. […] The membranes prepared above are incubated with a labeled ligand in 25 mM sodium phosphate, 5 mM magnesium chloride, 0.01% BSA two hours at room temperature. The binding reaction is stopped by rapid filtration onto GF/B filters. […] The pKd values (pKd=−log Kd) of the labeled ligand are calculated.
Radioligand binding assays were carried out in 25 mM sodium phosphate, 5 mM magnesium chloride, 0.01% BSA. Incubations were for two hours at room temperature, and reactions were stopped by rapid filtration onto GF/B filters.

rat M1 S109A receptor = target: T3, rat M1 S109A receptor (Rattus norvegicus, UniProt P08482, S109A); assay: R-SAT functional assay, S109A mutant; assay type: cell-based; details: Table 3; for Shift: EC50 S109A divided by EC50 wild-type; for EC50 / Eff (%): S109A; for Eff (%): maximum response, normalized
T3 construct: expressed in transfected cells
T3 sequence (P08482 1-460 S109A): T1 sequence (P08482 1-460 L102A) with A102L, S109A
Experimental: as §1, §2

Row | decrease in potency relative to wild-type (rat M1 L102A receptor; R-SAT, L102A) [fold] | Shift (rat M1 L102A receptor) | EC50 (rat M1 L102A receptor; L102A) [nM] | Eff (%) (rat M1 L102A receptor; L102A) | IC50 (rat M1 Y106A receptor) [nM] | Shift (rat M1 Y106A receptor) | Shift (rat M1 S109A receptor) | EC50 (rat M1 S109A receptor) [nM] | Eff (%) (rat M1 S109A receptor) | SMILES
1 | 30 | 30 | 501 | 37 ± 7% | 3160 | 3 | 1 | 15.8 | 104 ± 12 | CCCCC1CCN(CCCN2C(=O)COc3cc(F)ccc32)CC1 [AC-260584, 4-[3-(4-Butyl-piperidin-1-yl)-propyl]-7-fluoro-4H-benzo [1,4]oxazin-3-one]
2 |  | >100 | > 10000 | >35 ± — % | 50.1 | 0.3 | 2 | 100 | 68 ± 9 | Clc1ccc2c(c1)N=C(N1CCNCC1)c1ccccc1N2 [NDMC, 8-chloro-11-(1-piperazinyl)-5H-dibenzo [b,e] [1,4] diazepine]

Row | SMILES | decrease in potency relative to wild-type (rat M1 L102A receptor; R-SAT, L102A) [fold] | Shift (rat M1 L102A receptor) | EC50 (rat M1 L102A receptor; L102A) [nM] | Eff (%) (rat M1 L102A receptor; L102A) | IC50 (rat M1 Y106A receptor) [nM] | Shift (rat M1 Y106A receptor) | Shift (rat M1 S109A receptor) | EC50 (rat M1 S109A receptor) [nM] | Eff (%) (rat M1 S109A receptor)
3 | CCCCC1CCN(CCCC(=O)c2ccccc2C)CC1 [AC-42, 4-n-butyl-1-[4-(2-methylphenyl)-4-oxo-1-butyl] piperidine hydrogen chloride] |  |  |  | 6 ± 0% | 5010 | 1 | 1 | 158 | 59 ± 5
